Assays:
Granulocytes = test: Viability of normal residual granulocytes in bone marrow samples of MM patients (flow cytometry); assay type: cell-based, human; details: all doses tested
Description: Human multiple myeloma cell lines MM1.S, MM1.R, RPMI-8226 (RPMI) and U266 were purchased from American Type Culture Collection [(ATCC), LGC Standards, Manassas, USA]. Human primary cells were obtained from MM patients' bone marrow (BM) and healthy donors' peripheral blood (PB). PB samples were collected from buffy coats and leukapheresis products, previously mobilized with granulocyte colony stimulating factor (G-CSF). Hematopoietic progenitor cells (CD34+) were isolated from leukaphesesis samples, and B (CD19+) and T (CD3+) lymphocytes from buffy coats by positive immunomagnetic separation in the AutoMACS pro separator (Miltenyi Biotec, Bergisch Gladbach, Germany). For this purpose CD34-, CD19- and CD3-MACS microbead Human Kit (Miltenyi Biotec, Bergisch Gladbach, Germany). The purity of all isolated cells was higher than 95% in all cases. […]
Further, cell viability of bone marrow cell populations from patients was assessed by flow cytometry using 7-amino-actinomycin D [(7-AAD), BD Biosciences] together with a combination of monoclonal antibodies against myeloma-associated antigens (anti-CD56-APC, anti-CD45-Pacific Blue, and anti-CD38-APC-H7 [BD Biosciences]) and antibodies to discriminate the granulomonocytic (anti-CD64-FITC) and lymphocytic (anti-CD45-Pacific Blue) populations. […] Fluorescent intensity was quantified and analyzed using Infinicyt™ Software (Cytognos, Salamanca, Spain). […]

[1] = tested on: CD34+ hematopoietic stem cells; test: Cell viability of CD34+ hematopoietic stem cells, Example 2 (MTT); assay type: cell-based, human
Description: Human primary cells were obtained from LMA patients' bone marrow (BM) and healthy donors' peripheral blood (PB). Hematopoietic progenitor cells (CD34+) were isolated from leukaphesesis samples, and B (CD19+) and T (CD3+) lymphocytes from buffy coats by positive immunomagnetic separation in the AutoMACS pro separator (Miltenyi Biotec, Bergisch Gladbach, Germany). For this purpose CD34-, CD19- and CD3-MACS microbead Human Kit (Miltenyi Biotec, Bergisch Gladbach, Germany).
(§1) Cells lines, CD34+ cells and blast were cultured in 96-well plates (5×10e5 cells per well) with the addition of the indicated concentrations of WIN 55,212-2 or JWH-133 in DMSO or with the solvent alone in triplicate. Also we add myoricin together the cannabinoid WIN-55 to see if this effect reversed. Cell viability was determined by the WST-1 [2-(4-lodophenyl)-3-(4-nitrophenyl)-5-(2,4-disulfophenyl)-2H-tetrazolium] assay as per the manufacturer's instructions (Dojindo Molecular Technologies). Optical densities were measured at 450 nm using a plate reader Multiskan™ Go Microplate (Thermo Fisher Scientific, Waltham, Mass., USA).
Stem cells were treated with WIN-55 or JWH-133 and cell viability was analyzed using MTT assay.

[2] = tested on: KG1 (acute myelogenous leukemia) and HL60 (Human promyelocytic leukemia cells) cell lines; test: Cell viability of AML cell lines (MTT / WST-1 assay); assay type: cell-based; details: for cell viability of KG1 and HL60 cell lines as compared to untreated control cells: WIN-55 0.5-50 uM, JWH-133 0.05-1 mM; for concentration from which the cell viability decrease occurs with statistically significant data: FIG. 12 / FIG. 13
Method: Human acute myeloid leukemia cell line KG-1 and human acute promyelocytic leukemia cell line HL60 (American Type Culture Collection) were cultured RPMI 1640 medium (Gibco™, Invitrogen, Barcelona, Spain) with 2 mM L-glutamine, 100 IU/m1 penicillin and 100 ug/ml streptomycin (all from Sigma-Aldrich, St. Louis, Mo., USA), and supplemented with 10% (HL60 cell line) or 20% (KG1 cell line and human primary cells) fetal bovine serum [(FBS), [Thermo Fisher Scientific (Waltham, Mass., USA)] in a humidified atmosphere of CO2/air (5%/95%).
The cannabinoid agonists WIN-55,212-2 mesylate ((R)-(+)-[2,3-dihydro-5-methyl-3-(4-morpholinylmethyl)-pyrrolo-[1,2,3]-1,4-benzoxazin-6-yl]-1-naphthalenylmethanone mesylate) and JWH-133 ((6aR,10aR)-3-(1,1-Dimethylbutyl)-6a,7,10,10a-tetrahydro-6,6,9-trimethyl-6H-dibenzo [b,d] pyran) were purchased from Tocris Bioscience (Bristol, UK) and they was added in the indicated concentrations to culture medium for different incubation periods. Control cells were cultured with the relevant amounts of DMSO.
as §1
Firstly, we assessed the effect of cannabinoids WIN-55 and JWH-133 on cell viability. To this end, the cells were treated with increasing concentrations of cannabinoids, WIN-55 (0.5-50 uM) and JWH-133 (0.05-1 mM), for 18 and 48, and viability was analyzed by MTT assays.

lymphocytes = test: Viability of normal residual lymphocytes in bone marrow samples of MM patients (flow cytometry); assay type: cell-based, human; details: for viability of lymphocytes: all doses except the highest dose tested; for dose at which lymphocytes were affected (highest dose tested): bone marrow of MM patients
Description: Human multiple myeloma cell lines MM1.S, MM1.R, RPMI-8226 (RPMI) and U266 were purchased from American Type Culture Collection [(ATCC), LGC Standards, Manassas, USA]. Human primary cells were obtained from MM patients' bone marrow (BM) and healthy donors' peripheral blood (PB). PB samples were collected from buffy coats and leukapheresis products, previously mobilized with granulocyte colony stimulating factor (G-CSF). Hematopoietic progenitor cells (CD34+) were isolated from leukaphesesis samples, and B (CD19+) and T (CD3+) lymphocytes from buffy coats by positive immunomagnetic separation in the AutoMACS pro separator (Miltenyi Biotec, Bergisch Gladbach, Germany). For this purpose CD34-, CD19- and CD3-MACS microbead Human Kit (Miltenyi Biotec, Bergisch Gladbach, Germany). The purity of all isolated cells was higher than 95% in all cases. BM samples were obtained from five MM patients. In all cases, BM plasma cell infiltration was greater than 30%. The different cell subpopuplations from MM patients BM were not separated, but they were identified by flow cytometry using a suitable combination of antibodies: anti-CD64-FITC, anti-CD34-PE, anti-CD56-APC, anti-CD38-APC-H7, and anti-CD45-Pacific Blue (BD Biosciences, San Jose, Calif.).
Further, cell viability of bone marrow cell populations from patients was assessed by flow cytometry using 7-amino-actinomycin D [(7-AAD), BD Biosciences] together with a combination of monoclonal antibodies against myeloma-associated antigens (anti-CD56-APC, anti-CD45-Pacific Blue, and anti-CD38-APC-H7 [BD Biosciences]) and antibodies to discriminate the granulomonocytic (anti-CD64-FITC) and lymphocytic (anti-CD45-Pacific Blue) populations. Cells were incubated for 15 minutes at room temperature in the dark with suitable antibodies and 7-AAD, and after washing a total of 100 000 cells were acquired on FACSCanto II flow cytometer (BD Biosciences). Fluorescent intensity was quantified and analyzed using Infinicyt™ Software (Cytognos, Salamanca, Spain). Additionally, cell viability of MM cell lines and the peripheral blood CD34+, CD3+ and CD19+ cell populations from healthy donors was also analyzed by flow cytometry using 7-AAD, with the same protocol above described.
Once determined the antiproliferative effect of cannabinoids on tumor cells, both primary and cell lines, our aim was to test whether or not these drugs could also affect the viability of the counterpart normal cells, both normal residual populations from bone marrow samples obtained from MM patients as well as hematopoietic stem cells (CD34+) from healthy donors. […] Granulocytes and lymphocytes, were also unaffected by both cannabinoids, except for the lymphocytes at the highest doses tested, 50 uM for WIN-55 and 1 mM for JWH-133 (FIG. 2a,b).

T-cells (CD3+) = test: Cell viability of T-cells (MTT); assay type: cell-based, human
[3] = tested on: hematopoietic stem cells (CD34+); test: Cell viability of CD34+ hematopoietic stem cells from healthy donors (MTT); assay type: cell-based, human; details: any tested dose

For CCCC(C)(C)c1ccc2c(c1)OC(C)(C)[C@@H]1CC=C(C)C[C@@H]21 [JWH-133, (6aR,10aR)-3-(1,1-Dimethylbutyl)-6a,7,10,10a-tetrahydro-6,6,9-trimethyl-6H-dibenzo [b,d] pyran], which viability of granulocytes (Granulocytes) is on record?
The viability of granulocytes was “unaffected”.

What about the “cell viability of CD34+ hematopoietic stem cells” value [1] of the same molecule?
The value was “remains unaffected”.

What about the “cell viability of KG1 and HL60 cell lines as compared to untreated control cells” value ([2]; 18 h) of the same molecule?
The value was “significantly reduced”.

What about the “concentration from which the cell viability decrease occurs with statistically significant data” value [2] of the same molecule?
Its value is at least 500 µM.

What about the viability of lymphocytes (lymphocytes) of the same molecule?
The viability of lymphocytes was “unaffected”.

And the “dose at which lymphocytes were affected (highest dose tested)” value (lymphocytes)?
The value was 1 mM.

What about the “viability of T-cells” value (T-cells (CD3+)) of the same molecule?
Its value is “remained unaffected”.

What about the “cell viability of hematopoietic stem cells (CD34+)” value [3] of the same molecule?
The value was “remained unaffected”.

What does the source list for CS(=O)(=O)O.Cc1c(C(=O)c2cccc3ccccc23)c2cccc3c2n1[C@H](CN1CCOCC1)CO3 [WIN-55, (R)-(+)-[2,3-dihydro-5-methyl-3-(4-morpholinylmethyl)-pyrrolo-[1,2,3]-1,4-benzoxazin-6-yl]-1-naphthalenylmethanone mesylate]?
viability of granulocytes (Granulocytes): unaffected; cell viability of CD34+ hematopoietic stem cells [1]: remains unaffected; most sensitive AML cell line ([2]; 18 h): HL60 was the most sensitive; cell viability of KG1 and HL60 cell lines as compared to untreated control cells ([2]; 18 h): significantly reduced; concentration from which the cell viability decrease occurs with statistically significant data [2]: ≥ 500 µM; viability of lymphocytes (lymphocytes): unaffected; dose at which lymphocytes were affected (highest dose tested) (lymphocytes): 0.05 mM; viability of T-cells (T-cells (CD3+)): remained unaffected; cell viability of hematopoietic stem cells (CD34+) [3]: remained unaffected

Source: patent US20180353461A1, “USE OF CANNABINOIDS AS CERAMIDE-GENERATING ANTICANCER AGENTS IN TUMORS OF THE HEMATOPOIETIC AND LYMPHOID TISSUES” (priority 2014, published 2018)
